According to patent US8785614B2, “Aberrantly methylated genes in pancreatic cancer” (The Johns Hopkins University, priority 2003, dated 2014):

Experiments:
[1] = tested on: AsPC1 pancreatic cancer cell line; test: Oligonucleotide microarray gene expression after TSA (1 μM, 24 h) vs mock; assay type: cell-based, human
From the text: (§1) These include a large panel of novel targets for silencing by histone deacetylation including several known tumor suppressor genes or cell cycle-regulatory genes (ING1, p57KIP2, CHES1, CHFR, GADD45B, and others).

[2] = tested on: Hs766T pancreatic cancer cell line; test: as above; assay type: cell-based, human
From the text: as §1

CC(/C=C/C(=O)NO)=C\[C@@H](C)C(=O)c1ccc(N(C)C)cc1 [TSA, trichostatin A]
Fold-change after TSA treatment ([1]; ADM, AsPC1): 7.6 fold | Fold-change after TSA treatment ([1]; ANGPT1, AsPC1): −1.77 fold | Fold-change after TSA treatment ([1]; AREG, AsPC1): 18.35 fold | Fold-change after TSA treatment ([1]; ATF3, AsPC1): 8.73 fold | transcripts with marked induction ([1]; AsPC1): 424 transcripts | transcripts with marked induction, share of transcripts analyzed ([1]; AsPC1): 2.3% | Fold-change after TSA treatment ([1]; BIK, AsPC1): 1.65 fold | Fold-change after TSA treatment ([1]; CACNA1G, AsPC1): 9.95 fold | Fold-change after TSA treatment ([1]; CAPN5, AsPC1): 1.73 fold | Fold-change after TSA treatment ([1]; CDH8, AsPC1): 1.11 fold | Fold-change after TSA treatment ([1]; CDKN1C, AsPC1): 10.62 fold | Fold-change after TSA treatment ([1]; CGR11, AsPC1): −1.39 fold | Fold-change after TSA treatment ([1]; CHES1, AsPC1): 1.87 fold | Fold-change after TSA treatment ([1]; CHFR, AsPC1): −1.1 fold | Fold-change after TSA treatment ([1]; CLDN15, AsPC1): −4.26 fold | Fold-change after TSA treatment ([1]; EDR1, AsPC1): 4.56 fold | Fold-change after TSA treatment ([1]; EGR4, AsPC1): 37.6 fold | Fold-change after TSA treatment ([1]; EREG, AsPC1): 1.91 fold | Fold-change after TSA treatment ([1]; GADD45B, AsPC1): 2.65 fold | Fold-change after TSA treatment ([1]; GAGE1, AsPC1): 0.66 fold | Fold-change after TSA treatment ([1]; GAGE2, AsPC1): −2.5 fold | Fold-change after TSA treatment ([1]; GAGE3, AsPC1): −5.88 fold | Fold-change after TSA treatment ([1]; GAGE4, AsPC1): −1.67 fold | Fold-change after TSA treatment ([1]; GAGE6, AsPC1): −1.16 fold | Fold-change after TSA treatment ([1]; GAGE7B, AsPC1): −4.88 fold | Fold-change after TSA treatment ([1]; H1 historic family, member 2 (BC002649), AsPC1): 6.64 fold | Fold-change after TSA treatment ([1]; HEP27, AsPC1): 413.37 fold | Fold-change after TSA treatment ([1]; HMOX1, AsPC1): 1.73 fold | Fold-change after TSA treatment ([1]; HPSE, AsPC1): 2.18 fold | Fold-change after TSA treatment ([1]; ID2, AsPC1): 10.26 fold | Fold-change after TSA treatment ([1]; ING1, AsPC1): 13.22 fold | Fold-change after TSA treatment ([1]; KLK12, AsPC1): 7.63 fold | Fold-change after TSA treatment ([1]; MAGE1, AsPC1): 1.05 fold | Fold-change after TSA treatment ([1]; MBD1, AsPC1): 2.66 fold | Fold-change after TSA treatment ([1]; MMP1, AsPC1): 9.05 fold | Fold-change after TSA treatment ([1]; NGFR, AsPC1): 0.76 fold | Fold-change after TSA treatment ([1]; NOTCH3, AsPC1): 7.93 fold | Fold-change after TSA treatment ([1]; P-glycoprotein (mdr1), AsPC1): 1.08 fold | Fold-change after TSA treatment ([1]; SPANXA1, AsPC1): −0.78 fold | Fold-change after TSA treatment ([1]; STC1, AsPC1): 15.9 fold | Fold-change after TSA treatment ([1]; UCPH, AsPC1): 5.48 fold | Fold-change after TSA treatment ([1]; ULBP2, AsPC1): 73.47 fold | Fold-change after TSA treatment ([1]; WNT4, AsPC1): 5.72 fold | Fold-change after TSA treatment ([1]; candidate tumor suppressor gene 21 protein (AF040708), AsPC1): −1.47 fold | Fold-change after TSA treatment ([1]; connective tissue growth factor (M92934), AsPC1): 17.38 fold | Fold-change after TSA treatment ([1]; hemoglobin, alpha 1 (HBAI), AsPC1): 20.5 fold | Fold-change after TSA treatment ([1]; interleukin 8, AsPC1): 44.67 fold | Fold-change after TSA treatment ([1]; period homolog 1 (PERI), AsPC1): 20.29 fold | Fold-change after TSA treatment ([1]; prostate differentiation factor (AF003934), AsPC1): 4.45 fold | Fold-change after TSA treatment ([1]; protease inhibitor 12 (neuroserpin) (SERPINU), AsPC1): 8 fold | Fold-change after TSA treatment ([1]; synovial sarcoma, X breakpoint 1 (BC001003), AsPC1): 1.74 fold | Fold-change after TSA treatment ([1]; tissue factor pathway inhibitor-2 (L27624), AsPC1): 0.4 fold | Fold-change after TSA treatment ([2]; ADM, Hs766T): 1.86 fold | Fold-change after TSA treatment ([2]; ANGPT1, Hs766T): 6.72 fold | Fold-change after TSA treatment ([2]; AREG, Hs766T): 2.02 fold | Fold-change after TSA treatment ([2]; ATF3, Hs766T): 1.73 fold | Fold-change after TSA treatment ([2]; BIK, Hs766T): 2.35 fold | Fold-change after TSA treatment ([2]; CACNA1G, Hs766T): 2.72 fold | Fold-change after TSA treatment ([2]; CAPN5, Hs766T): 1.06 fold | Fold-change after TSA treatment ([2]; CDH8, Hs766T): −1.11 fold | Fold-change after TSA treatment ([2]; CDKN1C, Hs766T): 6.57 fold | Fold-change after TSA treatment ([2]; CGR11, Hs766T): 1.82 fold | Fold-change after TSA treatment ([2]; CHES1, Hs766T): −1.11 fold | Fold-change after TSA treatment ([2]; CHFR, Hs766T): 8 fold | Fold-change after TSA treatment ([2]; CLDN15, Hs766T): −1.81 fold | Fold-change after TSA treatment ([2]; EDR1, Hs766T): −1.26 fold | Fold-change after TSA treatment ([2]; EGR4, Hs766T): 6.49 fold | Fold-change after TSA treatment ([2]; EREG, Hs766T): 7.43 fold | Fold-change after TSA treatment ([2]; GADD45B, Hs766T): 2.01 fold | Fold-change after TSA treatment ([2]; GAGE1, Hs766T): 14.57 fold | Fold-change after TSA treatment ([2]; GAGE2, Hs766T): 432.64 fold | Fold-change after TSA treatment ([2]; GAGE3, Hs766T): 184.93 fold | Fold-change after TSA treatment ([2]; GAGE4, Hs766T): 234.36 fold | Fold-change after TSA treatment ([2]; GAGE6, Hs766T): 237.45 fold | Fold-change after TSA treatment ([2]; GAGE7B, Hs766T): 331.97 fold | Fold-change after TSA treatment ([2]; H1 historic family, member 2 (BC002649), Hs766T): 5.8 fold | Fold-change after TSA treatment ([2]; HEP27, Hs766T): 1631 fold | Fold-change after TSA treatment ([2]; HMOX1, Hs766T): 2.56 fold | Fold-change after TSA treatment ([2]; HPSE, Hs766T): −1.12 fold | transcripts with marked induction ([2]; Hs766T): 349 transcripts | transcripts with marked induction, share of transcripts analyzed ([2]; Hs766T): 1.9% | Fold-change after TSA treatment ([2]; ID2, Hs766T): 5 fold | Fold-change after TSA treatment ([2]; ING1, Hs766T): 11.83 fold | Fold-change after TSA treatment ([2]; KLK12, Hs766T): 1.54 fold | Fold-change after TSA treatment ([2]; MAGE1, Hs766T): 0.49 fold | Fold-change after TSA treatment ([2]; MBD1, Hs766T): 7.94 fold | Fold-change after TSA treatment ([2]; MMP1, Hs766T): 1.63 fold | Fold-change after TSA treatment ([2]; NGFR, Hs766T): 4.11 fold | Fold-change after TSA treatment ([2]; NOTCH3, Hs766T): 2.06 fold | Fold-change after TSA treatment ([2]; P-glycoprotein (mdr1), Hs766T): 5.74 fold | Fold-change after TSA treatment ([2]; SPANXA1, Hs766T): 15.92 fold | Fold-change after TSA treatment ([2]; STC1, Hs766T): −1.31 fold | Fold-change after TSA treatment ([2]; UCPH, Hs766T): −1.45 fold | Fold-change after TSA treatment ([2]; ULBP2, Hs766T): 3.47 fold | Fold-change after TSA treatment ([2]; WNT4, Hs766T): 0.81 fold | Fold-change after TSA treatment ([2]; candidate tumor suppressor gene 21 protein (AF040708), Hs766T): 5.14 fold | Fold-change after TSA treatment ([2]; connective tissue growth factor (M92934), Hs766T): 43 fold | Fold-change after TSA treatment ([2]; hemoglobin, alpha 1 (HBAI), Hs766T): 1.55 fold | Fold-change after TSA treatment ([2]; interleukin 8, Hs766T): −1.42 fold | Fold-change after TSA treatment ([2]; period homolog 1 (PERI), Hs766T): 9.7 fold | Fold-change after TSA treatment ([2]; prostate differentiation factor (AF003934), Hs766T): 3.17 fold | Fold-change after TSA treatment ([2]; protease inhibitor 12 (neuroserpin) (SERPINU), Hs766T): 1.95 fold | Fold-change after TSA treatment ([2]; synovial sarcoma, X breakpoint 1 (BC001003), Hs766T): 38.74 fold | Fold-change after TSA treatment ([2]; tissue factor pathway inhibitor-2 (L27624), Hs766T): 120.09 fold
